According to paper PMC10487316, “A high‐throughput microfluidic mechanoporation platform to enable intracellular delivery of cyclic peptides in cell‐based assays” (Bioengineering & Translational Medicine, 2023):
Where a SMILES comes first, the peptide text is derived from it. Bridges are numbered along the chain shown (N, C = ends). [ ]: non-standard residue; d: D form. dPhe(4-CF3) = N[C@H](Cc1ccc(C(F)(F)F)cc1)C(=O)O; dTrp(6-F) = N[C@H](Cc1c[nH]c2cc(F)ccc12)C(=O)O; R8 = C=CCCCCCC[C@@](C)(N)C(=O)O; R5 = C=CCCC[C@@](C)(N)C(=O)O; S5 = C=CCCC[C@](C)(N)C(=O)O

Key:
[1] = tested on: CellSensor p53RE-bla HCT116 cell line (p53 response element reporter); assay: HCT116 p53 β-lactamase reporter gene functional assay; format: cell-based, human; details: for p53 activation at 10 μM with and without DμVS: 10 μM peptide, unprocessed vs DμVS-processed cells
Protocol: The CellSensor™ p53RE‐bla HCT116 cell line (K1640, Thermo Scientific) was used for functional characterization of p53 pathway activation by DμVS‐delivered peptides. Assay was performed similarly to how previously described.[17] These cells harbor a stable integration of a β‐lactamase reporter gene under control of the p53 response element. Cells were maintained in McCoy's 5A medium (16600‐082, Invitrogen) with 10% dialyzed FBS (26400‐036, Invitrogen), blasticidin (R210‐01, Invitrogen), and penicillin/streptomycin according to the manufacturer's protocol. Peptides were synthesized as previously described.[16], [17] To set up the assay, peptides were first pre‐plated in assay medium (Opti‐MEM supplemented with 0.1 mM non‐essential amino acids [11140‐050, Invitrogen], 1 mM sodium pyruvate [11360‐070, Invitrogen], and penicillin/streptomycin) without FBS on 384‐well plates (Corning 3764) or 96‐well plates (Corning 3603) using a HP D300E digital dispenser (20 μl 384‐well, 50 μl 96‐well). Maximum DMSO concentration used was 0.3% v/v. Cells were washed, resuspended with 0.05% v/v trypsin, spun down for 5 min at 300× g, and resuspended in PBS. Cells were 70‐μm strained and then brought to a final cell density of 3 × 10^6 cells/ml in PBS. Cell suspension was connected to 15 mL P‐CAP of the DμVS system, and 2 mL were used to prime the system. DμVS process was then initiated at 120 psi and 20 μL (384‐well) or 50 μL (96‐well) were dispensed to microplate in wells that were pre‐defined in the Telios software and pre‐loaded with peptides 2× in assay medium. Unprocessed cells were added to the microplate in parallel. After DμVS processing/mixing with peptide, cells were incubated at 37°C for 4 h. β‐lactamase activity was detected using the ToxBLAzer loading kit (K1095, Invitrogen) according to the manufacturer's protocol. Plates were measured using the PHERAstar FSX microplate reader with a LiveBlazer optic module (1400‐G3M‐FI‐410‐530‐460, BMG Labtech). Maximum p53 activity was defined as the β‐lactamase activity induced by 30 μM MP‐081 (meanpos). Percent activation of individual samples (S) was calculated using the following equation, where meanveh represents the mean of vehicle controls: % activation=S−meanveh/meanpos−meanveh×100
Z‐factors were calculated using the formula: Z^′=1−3σpos+3σveh/meanpos−meanveh
Meanpos and σ pos represent the mean and standard deviation, respectively, of the raw ratiometric values for 30 μM MP‐081 and meanveh and σ veh represent the mean and standard deviation of the vehicle controls. Dose–response data EC50 values were determined using the “[Agonist] versus response—Variable slope (four parameters)” algorithm in GraphPad Prism. Single concentration data for expanded peptide set were analyzed using unpaired T‐tests with false discovery rate (FDR, 1.00%) multiple comparisons correction using the two‐stage step‐up (Benjamini, Krieger, and Yekutieli) method. Data were accumulated from at least five independent experimental runs.

MDM2 (1–125) protein = target: T1, MDM2 (1–125) protein (Homo sapiens, UniProt Q00987); assay: MDM2 binding assay (fluorescence anisotropy competition); details: competition vs 50 nM FAM-labeled 12/1 peptide, 250 nM MDM2; heat map of Figure 5a
T1 construct: made in house
T1 sequence (Q00987 1-125): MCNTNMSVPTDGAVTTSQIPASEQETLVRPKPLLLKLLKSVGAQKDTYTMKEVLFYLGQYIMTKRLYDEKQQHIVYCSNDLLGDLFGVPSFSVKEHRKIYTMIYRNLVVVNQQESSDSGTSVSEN
Protocol: MDM2 protein generation and binding studies were performed as described.[17] […] The competing molecules were then titrated against the complex of the FAM‐labeled peptide and protein. Curve‐fitting was carried out using Prism 4.0 (GraphPad) to determine K D values. Readings were carried out with an Envision Multilabel Reader (PerkinElmer). […] All titrations were carried out in triplicate.

`CC(=O)N[C@@H](CC(C)C)C(=O)N[C@H](C(=O)N[C@H](Cc1ccccc1)C(=O)N[C@]1(C)CCCCCCC=CCCC[C@@](C)(C(=O)N[C@@H](C)C(=O)N[C@@H](C)C(=O)N[C@@H](C)C(=O)N[C@@H](C)C(=O)N[C@@H](C)C(=O)N[C@H](C)C(N)=O)NC(=O)[C@H](CC(C)C)NC(=O)[C@H](CCC(N)=O)NC(=O)[C@H](C)NC(=O)[C@H](Cc2c[nH]c3ccccc23)NC(=O)[C@H](Cc2ccc(O)cc2)NC(=O)[C@H](CCC(=O)O)NC1=O)[C@@H](C)O` [MP-990, Ac-Leu-Thr-DPhe-R8*-Glu-Tyr-Trp-Ala-Gln-Leu-S5*-Ala-Ala-Ala-Ala-Ala-DAla-NH2] (Ac-LT[dF][R8]EYWAQL[S5]AAAAA[dA]-NH2; staple 4-11) was tested, and the “p53 activation at 10 μM with and without DμVS” value [1] was “no activity in either format”.

`CC(C)C[C@@H](NC(=O)[C@@H](CC(C)C)NC(=O)[C@@H](CCCCN)NC(=O)[C@@H](CCC(=O)O)NC(=O)[C@@H](Cc1ccccc1)NC(=O)[C@@H](CC(N)=O)NC(=O)[C@@H](C)NC(=O)[C@@H](Cc1ccc(O)cc1)NC(=O)[C@@H](Cc1c[nH]c2ccccc12)NC(=O)[C@@H](C)NC(=O)[C@H](N)[C@H](C)O)C(=O)N[C@H](CCCNC(=N)N)C(N)=O` [MP-182, H-DThr-DAla-DTrp-DTyr-DAla-DAsn-DPhe-DGlu-DLys-DLeu-DLeu-DArg-NH2] (H-[dT][dA][dW][dY][dA][dN][dF][dE][dK][dL][dL][dR]-NH2) was tested, and the “p53 activation at 10 μM with and without DμVS” value [1] was “lack of activity”.

“H-Lys(N3)-betaAla-Leu-Thr-Phe-R8*-Glu-Tyr-Trp-Ala-Gln-Cba-S5*-Ser-Ala-Ala-Lys(mPEG24)-NH2 [MP-414]” was tested, and the “p53 activation at 10 μM with and without DμVS” value [1] was “showed functional activity” and the EC50 ([1]; DμVS-based assay format, expanded peptide set, read-out: DμVS-p53 reporter EC50 (validated hits, dose response)) was 1000 nM.

For `CC(C)C[C@H]1NC(=O)[C@@H](CC(C)C)NC(=O)[C@@](C)(NC(=O)[C@@H](CCC(=O)O)NC(=O)[C@@H](Cc2ccc(C(F)(F)F)cc2)NC(=O)[C@@H](CC(N)=O)NC(=O)[C@@H](C)NC(=O)[C@@H](Cc2ccc(O)cc2)NC(=O)[C@@H](Cc2c[nH]c3cc(F)ccc23)NC(=O)[C@@H](C)NC(=O)[C@H](N)[C@H](C)O)CCCC=CCCC[C@](C)(C(N)=O)NC1=O` [MP-313, H-DThr-DAla-DTrp(6-F)-DTyr-DAla-DAsn-DPhe(4-CF3)-DGlu-S5*-DLeu-DLeu-R5*-NH2] (H-[dT][dA][dTrp(6-F)][dY][dA][dN][dPhe(4-CF3)][dE][S5][dL][dL][R5]-NH2; staple 9-12), the Kd (MDM2 (1–125) protein) was 1.7 nM and the “p53 activation at 10 μM with and without DμVS” value [1] was “no p53 reporter activity improvement”.

`CC(=O)N[C@@H](C(=O)N[C@H](C)C(=O)N[C@H](Cc1c[nH]c2ccccc12)C(=O)N[C@H](Cc1ccc(O)cc1)C(=O)N[C@H](C)C(=O)N[C@H](CC(N)=O)C(=O)N[C@H](Cc1ccccc1)C(=O)N[C@H](CCC(=O)O)C(=O)N[C@H](CCCCN)C(=O)N[C@H](CC(C)C)C(=O)N[C@H](CC(C)C)C(=O)N[C@H](CCCNC(=N)N)C(N)=O)[C@H](C)O` [MP-183, Ac-DThr-DAla-DTrp-DTyr-DAla-DAsn-DPhe-DGlu-DLys-DLeu-DLeu-DArg-NH2] (Ac-[dT][dA][dW][dY][dA][dN][dF][dE][dK][dL][dL][dR]-NH2) was tested, and the “p53 activation at 10 μM with and without DμVS” value [1] was “lack of activity”.
